From patent publication US7605175B2, “Inhibitors of cyclin-dependent kinases, compositions and uses related thereto” (GPC Biotech AG, priority 2001, dated 2009)
Blank lines part the entries; values can stand above or below the compound they belong to.

Legend:
HIV-1 ROJO = experiment: Antiviral activity in PBMCs infected with HIV-1 ROJO (reverse transcriptase); assay type: cell-based
Experimental: (§1) The activity of the certain compounds of the invention was evaluated in peripheral blood mononuclear cells (PBMCs) infected with the low passage, clinical isolate HIV-1 ROJO to generate a measure of the efficacy of these compounds in acutely infected cells. The use of these normal human cells allows an estimate of the therapeutic index of these compounds to be made. Fresh PBMCs from two donors were pooled and stimulated with PHA-P for 48-72 hours. The cells were then cultured in the presence of IL-2 to maintain the cell division initiated by the mitogenic signal. The virus was added at a multiplicity of infection of 0.1. The cells were cultured for 7 days post infection prior to the evaluation of efficacy. Viral replication was measured by the level of reverse transcriptase activity in the supernatant and cytotoxicity was measured with the MTS assay.

[1] = test system: peripheral blood mononuclear cells (PBMCs); experiment: Cytotoxicity in PBMCs (MTS assay); assay type: cell-based, human; conditions: read-out: TC50: 50% cytoxicity (MTS)
Experimental: as §1

[2] = test system: NCI panel of 60 cell lines; experiment: NCI panel of human tumor cell lines (SRB), Mean-Graph Mid-point; assay type: cell-based; conditions: read-out: NCI panel MG-MID (Mean-Graph Mid-point, average IC50 over the whole cell panel)
Text: (§2) The evaluation of compounds at the National Cancer Institute in their panel of 60 cell lines provides a wealth of information regarding efficacy in a wide range of tumor types and genetic backgrounds. Included within this panel are cell lines derived from leukemia, melanoma and cancers of the lung, colon, brain, ovary, breast, prostate and kidney. Use of this panel provides a measure of the efficacy of compounds in cells with alterations in many genes that are associated with neoplastic transformation including p53 and Her2/Neu as well as those involved in metabolism and those which confer multi-drug resistance. The data generated in these cell lines with the protocol described below can be used to evaluate the activity of compounds.
Cells were grown in RPMI-1640 10% FCS and plated in 96 well micro-titer plates at densities ranging from 5,000 to 40,000 cells/well. The plates were incubated for 24 hours at 37° C., 5% CO2 for 24 hours. Media containing twice the desired final concentration of the compound (5 doses spanning 4 logs) was prepared and 100 μl was added to each well containing 100 μl media plus cells to yield the desired final concentration. The plates were then incubated for an additional 48 hours.
The effect of the compound on cellular viability was determined with the Sulforhodamine B (SRB) assay, which measures total protein. Cells were fixed with cold TCA to a final concentration of 10% and incubated at 4° C. for 60 minutes. The supernatant was discarded and the plates were washed five times with water and air-dried. SRB solution at […] in 1% acetic acid was added to each well and the plates were incubated for 10 minutes at room temperature. The plates were washed five times with 1% acetic acid and air-dried. The bound stain was solubilized with 10 mM trizma base and the absorbance was read on a plate reader at […].

[3] = test system: adriamycin resistant cell line (ADR-res); experiment: NCI panel (SRB), adriamycin resistant cell line; assay type: cell-based; conditions: Homo sapiens
Text: as §2
Cells were grown in RPMI-1640 10% FCS and plated in 96 well micro-titer plates at densities ranging from 5,000 to 40,000 cells/well. The plates were incubated for 24 hours at 37° C., 5% CO2 for 24 hours. […]
The effect of the compound on cellular viability was determined with the Sulforhodamine B (SRB) assay, which measures total protein. […] The bound stain was solubilized with 10 mM trizma base and the absorbance was read on a plate reader at […].

HCT-116 cells [4] = experiment: Calcein AM viability assay, HCT-116; assay type: cell-based; conditions: Homo sapiens
Experimental: (§3) The potency of Cdk inhibitors, as measured by loss of cellular viability, was determined with the Calcein AM assay (Molecular Probes). Calcein AM is a substrate of intracellular esterases, which is cleaved only in viable cells to generate a fluorescent product that can be quantified with a fluorescent plate reader. The fluorescent signal is proportional to the number of viable cells, and thus loss of signal in response to the exposure of cells to Cdk inhibitors correlates with a loss of viability. This assay can distinguish cell cycle arrest, in which cells may still by viable, from loss of viability and is thus well suited for the evaluation of Cdk inhibitors. A compound that is a potent cytotoxic, may cause significant loss of cell viability in such assay.
(§4) Cellular IC50's were determined in the human colorectal carcinoma cell line, HCT-116, and the normal human fibroblast, IMR90. Protein adjusted IC50's were also determined in HCT-116.
HCT-116 or IMR90 cells were recovered from sub-confluent plates by trypsinization and 1,000 or 4,000 cells, respectively, were plated in 24-well dishes and incubated overnight at 37° C., 5% CO2. HCT-116 cells were cultured in RPMI-1640, 10% FCS, and IMR90 cells were cultured in Minimum Essential Medium-alpha, 10% FCS. After overnight incubation to allow adherence, the media was aspirated from each well and replaced with media containing a test compound at a concentration from 0 to 250 nM, spanning a total of 7 doses. The plates were returned to the incubator and cultured for an additional 72 hours (3 days). […] After 72-hours incubation with the test compound, the cells were washed twice with 1×PBS, taking special care to remove all residual buffer.
A 5 μM Calcein AM solution was prepared by dissolving a […] aliquot of Calcein (Molecular Probes catalog # C3100) in 50 μl DMSO. After the Calcein had completely dissolved (10 minutes at room temperature), it was diluted into 10 ml PBS. Calcein/PBS (0.5 ml) was added to each well. The plates were incubated for 75 minutes at 37° C. (protected from light) and the fluorescent signal was read on a fluorescent plate reader (excitation 485/20 and emission 530/25).

HCT-116 cells [5] = experiment: BrdU incorporation assay; assay type: cell-based; conditions: Homo sapiens, read-out: Brd U, concentration that inhibits BrdU incorporation by 50%
Experimental: This method measured the percentage of cells that incorporated the nucleotide analog, BrdU, into newly synthesized DNA as cells progressed through the S phase of the cell cycle. The inhibition of BrdU incorporation was used as a measure of a Cdk inhibitor's effect on S phase progression and DNA replication.
3 sets of HCT-116 cells (100,000 cells/set) were plated in T25 flasks and incubated with a test compound as above. Analysis was done at 24, 48, and 72 hours. BrdU was added to each T-25 flask from a stock of 10 mg/ml to a final concentration of 10 μM and the cells were incubated for an additional 16-18 hours at 37° C. The cells were then prepared for flow cytometric analysis according to manufacturer's protocol (BrdU Flow kit, BD-Pharmingen catalogue #2354KK) as follows:
Cells were harvested (adherent and floating) from the T25 flasks directly into Falcon 12×75 flow cytometric tubes as above followed by fixation and permeabilization with the addition of 100 μl of Cytofix/Cytoperm buffer (30 minutes, room temperature). The cells were then washed with 1 ml of Perm Wash buffer and the cell pellets were resuspended in 100 μl Cytoperm Plus buffer and incubated on ice for 10 minutes. The cells were then washed again with 1 ml of Perm Wash buffer and the fixation was repeated in 100 μl of Cytofix/Cyto Perm buffer for 10 minutes at room temperature. The cells were then washed with 1 ml of Perm Wash buffer. The cells were next treated for one hour at 37° C. with 100 μl DNase to expose incorporated BrdU followed by another wash step with 1 ml of Perm Wash buffer. […] Cells were protected from light and incubated at room temperature for 20-30 minutes. Following the incubation, the cells were washed with 1 ml of Perm Wash buffer, resuspended in 300 μl of 2% FBS in PBS, and analyzed on the flow cytometer. Results are presented in Table 2 as the concentration of compound (μM) that inhibits of BrdU incorporation by 50%.

arrested HCT-116 cells = experiment: Arrested cell assay, arrested HCT-116 tumor cells; assay type: cell-based; conditions: Homo sapiens, serum-starved arrested cells, 72 hours, read-out: Arrested cell assay HCT IC50
Experimental: (§5) Cyclin-dependent kinase (Cdk) activity is required to promote the progression of cells through distinct phases of the cell division cycle. The proliferation of normal, non-transformed, cells in culture requires the presence of growth factors, the removal of which, through serum deprivation, leads to a loss of Cdk activity and consequent exit from the cell cycle as cells enter the quiescent phase, G0.
HCT-116 cells were plated in triplicate for each compound concentration to be tested in RPMI 1640 media containing 10% fetal calf serum at a density of either 200 or 2,000 cells per well in 24 well dishes, and incubated overnight at 37° C., 5% CO2. The media from the plate containing 2,000 cells per well was removed, cells were washed once with serum free media and 1 ml of serum free media was placed on cells. The plates containing cells both in the presence and absence of serum were incubated for 6 additional days.
(§6) The cells are incubated in the presence of the compounds for 72 hours (3 days) at 37° C. […] Cycling and arrested HCT-116 cells as well as cycling IMR90 cells were exposed to a panel of 6 doses ranging from 5 to 250 nM. For arrested normal cells, the range of doses was increased to 50 nM to 25 μM, to compensate for the expected decrease in activity.
(§7) The effect of 72 hours of compound exposure on cellular viability was assessed in the Calcein AM assay. Calcein AM is a fluorescent substrate of intracellular esterases that are only active in viable cells. Cleavage of the substrate thus provides a measure of viability, which is proportional to cell number.
(§8) A Calcein AM stock solution was prepared by dissolving a 50 μg aliquot (Molecular Probes catalogue # C3100) in 50 μl DMSO. The tube was incubated at room temperature for approximately 10 minutes to ensure that the Calcein had dissolved completely. The calcein was diluted into 10 ml PBS to prepare the final solution, which was protected from light.
(§9) The media was aspirated off the cells, which were then washed twice with 1 ml PBS to remove the PBS completely from cells by aspiration. 0.5 ml of the Calcein/PBS solution was transferred by pipette into each well. The plates were incubated at 37° C. for 75 minutes (protected from light) and read on a fluorescent plate reader (excitation 485/20 and emission 530/25).

arrested IMR90 cells = experiment: Arrested cell assay, arrested IMR90 normal cells; assay type: cell-based; conditions: Homo sapiens, IMR-90; serum-starved arrested cells, 72 hours; read-out: Arrested cell assay IMR90 IC50
Experimental: as §5
IMR90 cells were plated in triplicate for each compound concentration to be tested in MEM-A media containing 10% fetal calf serum at a density of either 2,000 or 20,000 cells per well in 24-well dishes and incubated overnight at 37° C., 5% CO2. The media was removed from the 20,000 cell-per-well dish, cells were washed once with serum-free media, and serum-free media was placed on cells. The plates containing cells both in the presence and absence of serum were incubated for 3 additional days.
as §6, §7, §8, §9

[6] = target: protein kinase C (mixed isozymes); experiment: Protein kinase C TCA precipitation assay; assay type: biochemical, rat; conditions: Table 5; read-out: PKC IC50
Experimental: Enzymes: Cdc2/cyclin B was obtained from commercial sources. Cdk2/his-cyclin Eshort was expressed in Sf9 cells. Cdk2/cyclin A, cdk4/cyclin D1, and cdk6/cyclin D2 were expressed in Sf9 cells. Protein kinase A (catalytic subunit, from bovine heart) and protein kinase C (mixed isozymes from rat brain) were obtained from commercial sources.
Protein kinase C and protein kinase A were assayed using a TCA precipitation assay with Histone H1 as a substrate. For protein kinase A, the final assay contained 50 mM Tris, 10 mM MgCl2, 1 mM dithiothreitol, pH 7.5, 12 μM adenosine triphosphate, 10% (v/v) dimethylsulfoxide (from compounds), 20 μg Histone H1, 2 μCi [γ-^32P] adenosine triphosphate, 0.2 U protein kinase A in a 100 μL assay. A protein kinase C assay contained 50 mM Tris, 10 mM MgCl2, 1 mM dithiothreitol, 0.8 mM CaCl2, pH 7.5, 5 μM adenosine triphosphate, 10% (v/v) dimethylsulfoxide (from compounds), 20 μg Histone H1, 2 μCi [γ-^32P] adenosine triphosphate, 0.01 U protein kinase C in a 50 μL assay. The assays were started by the addition of enzyme, allowed to react for 10 min at 30° C., and stopped by adding 0.4 volumes of 237 mM disodium ethylenediamine tetraacetate, 105 mM adenosine triphosphate, pH 8.0. […] The filters were washed ten times with 25% (w/v) trichloroacetic acid, and the amount of incorporated [^32P]phosphate was determined by adding 100 μl Microscint and scintillation counting.

IMR90 cells = experiment: Calcein AM viability assay, IMR90; assay type: cell-based; conditions: Homo sapiens, IMR-90, 72 h, read-out: IMR90 viability IC50
Experimental: as §3, §4
HCT-116 or IMR90 cells were recovered from sub-confluent plates by trypsinization and 1,000 or 4,000 cells, respectively, were plated in 24-well dishes and incubated overnight at 37° C., 5% CO2. […]
A 5 μM Calcein AM solution was prepared by dissolving a […] aliquot of Calcein (Molecular Probes catalog # C3100) in 50 μl DMSO. […] (protected from light) and the fluorescent signal was read on a fluorescent plate reader (excitation 485/20 and emission 530/25).

[7] = HCT-116, 72 h, read-out: HCT-116 IC50 Viability

SMILES: Cc1cn([C@H]2C[C@H](N=[N+]=[N-])[C@@H](CO)O2)c(=O)[nH]c1=O [AZT, reference compound]
TI: TC50/IC50 (HIV-1 ROJO): >100
IC50 (HIV-1 ROJO; read-out: IC50: 50% inhibition of virus replication measured by reverse transcriptase levels in the supernatant, HIV-1 ROJO, 7 days post infection): < 10 nM
CC50 [1]: > 1000 nM

IC50 (HCT-116 cells [4]; HCT-116, plus 1 mg/ml alpha acidic glycoprotein and 45 mg/ml human serum albumin, read-out: HCT-116 IC50 Protein adjusted): < 1000 nM
SMILES: CC(C)c1nn(-c2c(Cl)cc(Cl)cc2Cl)c2nc(Cc3ccc(OCCN4CCOCC4)cc3)[nH]c(=O)c12 [A]
IC50 [2]: < 100 nM
IC50 [3]: < 1000 nM

IC50 (HCT-116 cells [5]; HCT-116, 24 h): < 10 nM
IC50 (HCT-116 cells [5]; HCT-116, 48 h): < 100 nM
IC50 (arrested HCT-116 cells): < 100 nM
IC50 [6]: < 10 µM
SMILES: CC(C)N1CCN(CCOc2ccc(-c3[nH]nc4c3C(=O)c3c(NC(=O)NN5CCOCC5)cccc3-4)cc2)CC1 [E]
IC50 (arrested IMR90 cells): > 100 nM

SMILES: O=C(Nc1cccc2c1C(=O)c1c-2n[nH]c1-c1ccc(OP(=O)(O)O)cc1)NN1CCOCC1 [J]
IC50 (HCT-116 cells [4]; [7]): < 1000 nM
IC50 (IMR90 cells): < 100 nM

SMILES: CC(C)c1nn(-c2c(Cl)cccc2Cl)c2nc(Cc3ccc(OP(=O)(O)O)cc3)[nH]c(=O)c12 [Compound B]
IC50 (HCT-116 cells [4]; [7]): < 1000 nM
IC50 (IMR90 cells): < 1000 nM
